Results taken from PMC11082890, “Phenazine Cations as Anticancer Theranostics” (Journal of the American Chemical Society, 2024).

Experiments:
Test in all cases: MTT cytotoxicity assay, 48 h
Format in all cases: cell-based
[1] = system: HEK293 human embryonic kidney cells; conditions: HEK293 noncancerous cells, 48 h treatment, value (S.D.)
Experimental: (§1) First, the cytotoxicity of 1^2+ and 2^2+ toward several cancer cell lines was examined. The viability of cells exposed to their chloride salts was assessed by an MTT (3-(4,5-dimethylthiazol-2-yl)-2,5-diphenyltetrazolium bromide) assay, and the common chemotherapeutic agent cisplatin was employed as a positive control, Figure 3.
(§2) S2. Tissue Culture and Microscopy Methods
(§3) Cell media was purchased sterile from Sigma-Aldrich. A2780 human ovarian cancer cells and A2780CIS human ovarian cisplatin resistant cells were cultured in RPMI-1640 medium. MCF7 human breast cancer cells, T24 human bladder cancer cells and HEK293 human embryonic kidney cells were cultured in DMEM medium. All growth medium was supplemented with 10 % fetal bovine serum (FBS), 2 mM L-Glutamine, 100 IU mL-1 penicillin and 100 μg mL-1 streptomycin and sterile filtered before use. Cell cultures were grown by incubation at 37 ᵒC with 5 % CO2 and were frequently passaged with trypsin when confluency of around 80 % was reached.
(§4) All cells used were at passage numbers below 50.
(§5) S2b. Preparation of Compounds
(§6) Stock solutions of compounds were solubilized in 10 % PBS (Phosphate Buffer Saline) and 90 % media.
(§7) Solutions were then sterile filtered through a 0.22 μm filter prior to use.
(§8) S2c. Cytotoxicity (MTT Assay) and Determination of IC50 Values
(§9) MTT (3-(4,5-Dimethylthiazol2-yl)-2,5-diphenyltetrazolium bromide)) is a yellow tetrazolium salt that is reduced to formazan in metabolically active cells. Therefore, the purple coloured formazan can be dissolved and quantified through absorbance as a measure of cell viability. Cells were seeded in 48 well plates at a density of 5 x 10^4 cells per well and incubated for 24 hours prior to treatment. After 24 hours, compound (10 % PBS:
(§10) 90 % medium) was added over a concentration gradient from 0.1 to 100 μM with each concentration in triplicate. Some wells were treated with a concentration range of cisplatin as a positive control. Cells were incubated with the relevant concentrations of compound for 48 hours, after which the media was removed and replaced with MTT (0.5 mg mL-1 in serum-free medium) for a period of 30-45 minutes. The MTT solution was then carefully removed and the formazan eluted with isopropanol (130 μL per well). 100 μL from each well was transferred into a 96 well plate to enable quantification of cell viability using a plate reader measuring absorbance at 570 nm. An average absorbance was obtained for each concentration and the cell viability was then calculated as a percentage of the untreated negative control wells. A graph of cell viability against concentration was plotted and the IC50 (the concentration at which the cell viability is 50 %) determined by interpolation. The IC50 values are reported as an average of at least 3 independent biological replicates. […]
(§11) All plates were then incubated for another 24 hours following light treatment. Media was then removed from each well and replaced with MTT (0.5 mg mL-1 in serum-free medium) for 30-45 minutes. […]
(§12) The data was then plotted as a graph of cell viability against concentration to determine the IC50 values by interpolation before and after light treatment.

[2] = system: A2780CIS human ovarian cisplatin resistant cells; conditions: 48 h treatment, value (S.D.)
Experimental: as §1, §2, §3, §4, §5, §6, §7, §8, §9, §10, §11, §12

[3] = system: A2780 human ovarian cancer cells; conditions: A2780, 48 h treatment, value (S.D.)
Experimental: as §1, §2, §3, §4, §5, §6, §7, §8, §9, §10, §11, §12

[4] = system: MCF7 human breast cancer cells; conditions: MCF7, 48 h treatment, value (S.D.)
Experimental: as §1, §2, §3, §4, §5, §6, §7, §8, §9, §10, §11, §12

[5] = system: T24 human bladder cancer cells; conditions: T24, 48 h treatment, value (S.D.)
Experimental: as §1, §2, §3, §4, §5, §6, §7, §8, §9, §10, §11, §12

N.N.[Cl][Pt][Cl] [cisplatin]
IC50 [1]: 5 µM
IC50 [2]: 19 µM
IC50 [3]: 1.3 µM
IC50 [4]: 26 µM
IC50 [5]: 3 µM
